Where two headings read alike, the source gives them in different places.
What was measured:
[1] = healthy subjects, within the clinical dose range; cited from earlier work
[2] = cited from earlier work
PAMPA permeability = format: in vitro ADME; details: pH 7, simulated saliva condition
[3] = cited from earlier work; remark: listed apart in the source
[4] = single oral dose of radiolabeled drug

In the case of Cc1ccc(-c2cc(C(F)(F)F)nn2-c2ccc(S(N)(=O)=O)cc2)cc1 [Celecoxib, 4-[5-(4-methylphenyl)-3-(trifluoromethyl)-1H-pyrazol-1-yl] benzenesulfonamide], the protein bound [1] is listed as roughly 97%, the “time of peak plasma levels” value ([2]; after an oral dose) is listed as “approximately 3 hrs” and the effective half-life ([2]; fasted conditions) is listed as “approximately 11 hours”. For the same compound, the “dose proportionality of Cmax and AUC” value ([2]; fasting conditions, up to 200 mg BID) was “roughly dose-proportional”, the “overall systemic exposure (AUC), intact capsule vs capsule contents sprinkled on applesauce” value ([2]; healthy adult volunteers) was “equivalent” and the “apparent plasma clearance (CL/F)” value ([2]; human, in vivo) was “about 500 mL/min”. The “unchanged drug recovered in the urine and feces” value ([2]; human, in vivo) was less than 3%, the steady-state conditions reached ([2]; multiple dosing) was no more than 5 days and the “time of peak plasma levels” value ([2]; single dose of 200 mg of current formulation, oral) was 3 h. For the same compound, the “onset of pain relief” value ([2]; single dose of 200 mg of current formulation) was no less than 1 h, the “dose excreted in the feces” value [2, 4] was “approximately 57%” and the “dose excreted into the urine” value [2, 4] was 27%. For the same compound, the Papp (PAMPA permeability) was 0.3 ×10⁻⁶ cm/s, the “solubility in methanol and chloroform” value [3] was “soluble” and the solubility in water [3] was “insoluble”.
